Data published in PMC6254286, “Quantitative Structure − Antiprotozoal Activity Relationships of Sesquiterpene Lactones ^†” (Molecules, 2009).
Read-outs that look alike come from different tables or passages of the source.

Legend:
[1] = test system: Trypanosoma brucei rhodesiense STIB 900; assay: In vitro activity against T. brucei rhodesiense bloodstream forms (Alamar blue); type: cell-based; details: for IC50: bloodstream forms STIB 900, 72 h, mean of two independent measurements, read-out: IC50 T. brucei rhodes. (Tbr)
Method: (§1) Trypanosoma brucei rhodesiense and cytotoxicity against L6 cells. Minimum Essential Medium with Earle’s salts (50 µL) supplemented with 0.2 mM 2-mercapto-ethanol, 1 mM Na-pyruvate and 15% heat-inactivated horse serum was added to each well of a 96-well microtiter plate. […] Then 10^4 bloodstream forms of Trypanosoma brucei rhodesiense STIB 900 in 50 µL of medium were added to each well and the plate incubated at 37°C under a 5% CO2 atmosphere for 72 hours. […] The plate was then read in a Spectramax Gemini XS microplate fluorometer (Molecular Devices Corporation, Sunnyvale, CA, USA) using an excitation wavelength of 536 nm and emission wavelength of 588 nm. Fluorescence development was measured and expressed as percentage of the control. Data were transferred into the graphic programme Softmax Pro (Molecular Devices) which calculated IC50 values. Cytotoxicity was assessed using a similar protocol and rat skeletal myoblasts (L6 cells). […] All following steps were according to the T. b. rhodesiense protocol.

[2] = test system: T. cruzi Tulahuen strain C2C4; assay: In vitro activity against T. cruzi in L-6 host cells (beta-galactosidase/CPRG); type: cell-based, Trypanosoma cruzi; details: Tulahuen C2C4 in L-6 cells, 96 h, mean of two independent measurements, read-out: IC50 T. cruzi (Tcr)
Method: Trypanosoma cruzi. Rat skeletal myoblasts (L-6 cells) were seeded in 96-well microtiter plates at 2,000 cells/well in 100 µL RPMI 1640 medium with 10% FBS (fetal bovine serum) and 2 mM L-glutamine. After 24 hours the medium was removed and replaced by 100 µL per well containing 5,000 trypomastigote forms of T. cruzi Tulahuen strain C2C4 containing the β-galactosidase (Lac Z) gene. Fortyeight hours later the medium was removed from the wells and replaced by […] fresh medium with or without a serial drug dilution. Seven 3-fold dilutions were used covering a range from […]. Each drug was tested in duplicate. After 96 hours of incubation the plates were inspected under an inverted microscope to assure growth of the controls and sterility. Then the substrate CPRG/ Nonidet (50 µL) was added to all wells. A colour reaction developed within 2-6 hours and could be read photometrically at 540 nm.

[3] = test system: Leishmania donovani amastigotes (strain MHOM/ET/67/L82); assay: L. donovani axenic amastigote assay (resazurin); type: cell-based; details: for IC50: pH 5.4, 72 h, mean of two independent measurements, read-out: IC50 L. donovani (Ldon)
Method: Leishmania donovani (axenic amastigote assay). […] Serial drug dilutions in duplicates were prepared covering a range from 30 to 0.041 µg/mL. […] The compounds used as positive controls in the various bioassays (see Table 1) were of commercial origin, with the exception of melarsoprol, which was a gift from WHO. Their purity (generally > 95%) was specified by the manufacturers.

[4] = test system: K1 strain of P. falciparum; assay: Antiplasmodial [3H]-hypoxanthine incorporation assay; type: cell-based, Plasmodium falciparum
Method: Plasmodium falciparum. Antiplasmodial activity was determined using the K1 strain of P. falciparum (resistant to chloroquine and pyrimethamine). A modification of the [3H]-hypoxanthine incorporation assay was used. Briefly, infected human red blood cells (final parasitaemia and haematocrit were 0.3% and 1.25%, respectively) in RPMI 1640 medium with 5% Albumax were exposed to serial drug dilutions in microtiter plates. After 48 hours of incubation at 37°C in a reduced oxygen atmosphere, 0.5 mCi 3H-hypoxanthine was added to each well. Cultures were incubated for a further 24 h before they were harvested onto glass-fiber filters and washed with distilled water. The radioactivity was counted using a BetaplateTM liquid scintillation counter (Wallac, Zurich, Switzerland). […] From the sigmoidal inhibition curves IC50 values were calculated. Assays were run in duplicate and repeated once.

[5] = Cytotoxicity against L6 cells (Alamar blue); details: rat; for IC50: IC50 Cytotoxicity (L6), L6 rat skeletal myoblasts, 72 h, mean of two independent measurements
Method: as §1

[6] = test system: rat skeletal myoblasts (L6 cells); assay: in vitro
Method: as §1

[7] = Leishmania donovani, 72 h, pH 5.4, axenic amastigotes
[8] = Plasmodium falciparum, K1, K1 strain (resistant to chloroquine and pyrimethamine), mean of two independent measurements, read-out: IC50 P. falciparum (Pfc)
[9] = L6 cells (rat skeletal myoblasts)
[10] = Trypanosoma cruzi, TULAHUEN, L6, 96 h
[11] = protozoa, especially Tbr, versus L6 mammalian cells

Structure (SMILES) | IC50 ([1]; Trypanosoma brucei, 72 h) [µM] | IC50 [3, 7] [µM] | IC50 [4, 8] [µM] | IC50 at 72 h [5, 9] [µM] | IC50 [2, 10] [µM] | further results
C=C1C(=O)OC2CC(C)C(C=CC(C)=O)=CCC12 (stereo not drawn) [Compound 18] | 2.92 | 17.6 | 7.83 | 30.2 | – | IC50 ([2]; Trypanosoma cruzi, L6): 26.2 µM; antiparasitic activity compared with cytotoxicity (in words) [6]: significantly higher levels of antiparasitic activity, especially against Tbr, than cytotoxicity
C=C1C(=O)OC2CC3(C)CC(O)CC(=C)C3CC12 (stereo not drawn) [Compound 26] | 7.8 | > 4 | – | 0.948 | 24.8 | antiparasitic activity compared with cytotoxicity (in words) [6, 11]: considerably more toxic against the mammalian cells than against the protozoa
C=C1C(=O)OC2CC3(C)CCCC(=C)C3CC12 (stereo not drawn) [Compound 25] | 23.6 | > 14 | – | – | 22.3 | IC50 at 72 h [5]: 4.48 µM; antiparasitic activity compared with cytotoxicity (in words) [6, 11]: considerably more toxic against the mammalian cells than against the protozoa
C=C1C(=O)OC2CC(C)C3C(OC(C)=O)CC(O)C3(C)C(OC(C)=O)C12 (stereo not drawn) [Compound 15] | 3.96 | 8.68 | 5.98 | – | 16.3 | IC50 [5]: 7.28 µM
C=C1C(=O)OC2CC3(C)CC(=O)CC(C)C3=CC12 (stereo not drawn) [Compound 30] | 1.6 | 8.7 | 10.7 | 10.2 | 17.3 | –
C=C1C(=O)OC2CC(C)C3(C=CC(C)=O)OC3CC12 (stereo not drawn) [Compound 19, 8-epixanthatin-1,5-epoxide] | 0.33 | 0.599 | 6.51 | 22.1 | 11.3 | selectivity index (SI) with respect to Tbr ([1]; ratio of cytotoxic IC50 (L6) over IC50 against Tbr): 67; selectivity index (SI) with respect to Ldon ([3]; ratio of cytotoxic IC50 (L6) over IC50 against Ldon): 36; antiparasitic activity compared with cytotoxicity (in words) [6, 11]: significantly higher levels of antiparasitic activity, especially against Tbr, than cytotoxicity
C=C1C(=O)OC2CC(C)C3C=CC(=O)C3(C)C(OC(=O)CC(C)C)C12 (stereo not drawn) [Compound 4] | 0.116 | – | – | – | – | IC50 ([2]; Trypanosoma cruzi, L6): 2.48 µM; IC50 ([3]; Leishmania donovani, axenic amastigotes): 0.871 µM; IC50 ([4]; Plasmodium falciparum, K1, read-out: IC50 P. falciparum (Pfc)): 0.822 µM; IC50 [5]: 1.3 µM
C=C1C(=O)OC2CC3(C)CCCC(C)C3=CC12 (stereo not drawn) [Compound 29] | 2.62 | 3.03 | 6.4 | – | 8.3 | IC50 at 72 h [5]: 5.99 µM
C=C1C(=O)OC2CC(C)C3C(OC(C)=O)CC(OC(C)=O)C3(C)CC12 (stereo not drawn) [Compound 14] | 1.17 | 4.26 | 8.94 | 8.43 | 14.7 | –
C=C1C(=O)OC2CC(C)C3(O)C=C(C(C)=O)C4(CC3CC12)C(=O)OC1CC(C)C(C=CC(C)=O)=CCC14 (stereo not drawn) [Compound 21] | 0.638 | 22 | 4.96 | 9.43 | 16.1 | –
C=C1C(=O)OC2C=C(C)C(O)CC3OC3(C)CC(OC(=O)C(C)=CC)C12 (stereo not drawn) [Compound 38] | 0.942 | 18.2 | 8.81 | 13 | 16.5 | –
C=C1C(=O)OC2CC3(C)CC(OC(C)=O)CC(=C)C3CC12 (stereo not drawn) [Compound 27] | 10.7 | 11.8 | 9.21 | 8.91 | 24.3 | –
C=C1C(=O)OC2C1CCC1(C)C(O)CCC(=C)C21 (stereo not drawn) [Compound 32] | – | – | – | – | – | IC50 [1]: 1.11 µM; IC50 [2]: 26.2 µM; IC50 ([3]; axenic amastigotes): 7.34 µM; IC50 ([4]; K1 strain (resistant to chloroquine and pyrimethamine), mean of two independent measurements, read-out: IC50 P. falciparum (Pfc)): 13.6 µM; IC50 ([6]; read-out: IC50 Cytotoxicity (L6), L6 rat skeletal myoblasts, 72 h, mean of two independent measurements): 25.6 µM
